Results as given in patent publication US20030135065A1, “Process for the production of L-DOPA ethyl ester” (priority 2001, published 2003).

Experiments:
[1] = Hygroscopicity of L-DOPA ethyl ester forms; assay type: physicochemical
Excerpt: (§1) Great Britain Patent No. 1,364,505 and corresponding U.S. Pat. No. 3,803,120, assigned to Hoffman-La Roche, describe the synthesis of L-DOPA ethyl ester hydrochloride salt and free base. This compound is used as an intermediate in the synthesis of other compounds and is not characterized in the patent specification. […] This material cannot be used for pharmaceutical compositions. Likewise, the L-DOPA ethyl ester free base as prepared in these two patents is impure and not stable and thus also is not suitable for pharmaceutical compositions. At best it can be used as a synthetic intermediate for further chemical synthesis as described in the cited patents.
(§2) L-DOPA ethyl ester as free base obtained by this process is stable, non-hygroscopic, and crystalline. The LDEE free base has a particle size from 5 to 300 micron and an average particle size of 80 micron.

[2] = Stability of L-DOPA ethyl ester forms; assay type: physicochemical
Excerpt: as §1, §2

[3] = Particle size of LDEE free base; assay type: physicochemical; conditions: free base obtained by this process
Excerpt: as §2

[4] = composition produced according to the Milman process (U.S. Pat. No. 5,354,885); 6 months at 40° C.; cited from earlier work
[5] = material synthesized by the methods of GB 1,364,505 / U.S. Pat. No. 3,803,120
[6] = free base obtained by this process

CCOC(=O)[C@@H](N)Cc1ccc(O)c(O)c1.Cl [L-DOPA ethyl ester hydrochloride salt, L-DOPA ethyl ester hydrochloride, reference compound]
hygroscopicity [1, 5]: hygroscopic | stability [2, 5]: not stable

CCOC(=O)[C@@H](N)Cc1ccc(O)c(O)c1 [L-DOPA ethyl ester]
hygroscopicity [1, 6]: non-hygroscopic | stability [2, 6]: stable | stability [2, 5]: not stable | average particle size [3]: 80 micron | L-DOPA ethyl ester remaining after incubation [4]: at least 97 % by weight
